Entries after “also recorded” stand apart in the source; their conditions may differ.
Tests used:
[1] = tested on: chondrocyte hypertrophy and MMP13 expression; details: ex vivo and in vivo; cited from earlier work
[2] = tested on: bone marrow stromal cell-derived chondrocytes; details: cited from earlier work
AC cartilage = details: post-traumatic OA model, Jaswal et al.; cited from earlier work
[3] = tested on: articular cartilage of DMM mice; experiment: DMM model of post-traumatic OA: Safranin-O/Fast Green staining and OARSI scoring of articular cartilage damage; format: in vivo, mouse; details: mice with established osteoarthritis, 50 ng/dose injected into knee joint space
Experimental: (§1) FIG. 13. Growth differentiation factor 11 (GDF11, see, e.g., NCBI Reference Sequence: NP_005802.1) competes with BMP9/10 for binding to BMP type II receptors ACVRIIA or ACVRIIB, thereby preventing the association of BMP type I receptor ALK1 with ACVRIIA/B and decreasing BMP signaling. […] We tested this hypothesis by locally injecting GDF11 (50 ng/dose) into the knee joint space at mice with established post-traumatic OA. (A) Experimental Outline (B) Safranin-O/Fast Green (SOFG) Staining of sagittal sections of the knee joint, femur (top) and tibia (bottom) for proteoglycan (cartilage; red) and bone (green) at week 8 after DMM or Sham surgery. Mice were treated with either GDF11, or Phosphate Buffered Saline (PBS) after received surgery (n=5/group). 4-Week DMM mice were sacrificed 4 weeks after surgery and received no treatment (n=6). AC damage indicated by dotted line. (C-D) Osteoarthritis Research Society International (OARSI) scoring of AC damage in the (C) medial tibial plateau and (D) medial femoral condyle in representative sections of each treatment at week 4 or 8 after surgery. All data are shown as mean bar+/−standard deviation *p<0.05. Data analysis performed was one-way ANOVA. Scale 250 uM.
Mice (C57BL/6J) were purchased from The Jackson Laboratory. All mice were housed on a 12-hour light/dark cycle with unrestricted access to standard mouse food and water. The DMM model of injury induced OA was performed on mice at 12 weeks of age by opening the joint capsule and transecting the medial meniscotibial ligament in the right knee, destabilizing the medial meniscus(48). A sham operation was performed on the left knee of each mouse by observing the medial meniscotibial ligament but not transecting it. Mice were administered carprofen 5 mg/kg (Zoetis; 1041283) subcutaneously 30 minutes prior to surgery, immediately post-surgery, and 24 hours post-surgery to minimize pain.
Treatments were initiated either 1 day after DMM surgery once a week for 8 weeks, or 1 month after DMM surgery twice a week for 4 weeks. Mice were sacrificed at 20 weeks of age (2 months after surgery). To understand the level of articular cartilage damage 1 month after DMM surgery, a cohort of mice was sacrificed at 16 weeks old (FIG. 4).
Knee joint samples were harvested and fixed in 4% Paraformaldehyde for 3 days, and subsequently decalcified in formic acid (Statlab; 1414-32) for 3 days and embedded in paraffin. Sagittal sections 7 micrometers in thickness were taken and stained using Safranin-O (Sigma-Aldrich; S8884-25G), fast green (Sigma-Aldrich; F7258-25G), and hematoxylin (Fisherbrand; 245-656) using a standard histology protocol. Images were taken with the Olympus BX60 brightfield microscope using a 10× objective lens. Representative sections throughout the medial and lateral portion of side were chosen for histological analysis, resulting in 5 sections being imaged for both portions of the joint.
The 10 total sections per joint chosen for histology received randomized sample numbers and were given to three independent researchers who scored the level of cartilage damage based on OARSI guidelines (84). OARSI scores were analyzed with Prism 9 Software (GraphPad) using two-way ANOVA and Tukey's multiple comparisons test post-hoc. Scoring was performed by at least three experienced investigators blinded to treatment/genotype. Scores were averaged for the medial tibial plateau, medial femoral condyle, lateral tibial plateau, and lateral femoral condyle for each sample.

TGFbeta signaling = experiment: GDF11 injection into the knee joint of mice with established post-traumatic OA: TGFbeta signaling; format: in vivo, mouse; details: data of FIG. 13
Experimental: as §1, with “uM. […]” for “uM.”

## c1ccc2c(-c3cnn4cc(-c5ccc(N6CCNCC6)cc5)cnc34)ccnc2c1 [LDN-193189]
[1]
  chondrocyte hypertrophy and MMP13 expression: prevented
[2]
  chondrocyte hypertrophy / chondrogenic hypertrophic markers in vitro: not able to prevent; also recorded: no reduction
AC cartilage
  protection of AC cartilage: protective

B1: GDF11: GDF11 protein from Bio-techne/R&D, catalog 1958-GD, truncated active protein of 109 amino acids (protein, UniProt O95390 299-407, looked up)
Growth/differentiation factor …: NLGLDCDEHSSESRCCRYPLTVDFEAFGWDWIIAPKRYKANYCSGQCEYMFMQKYPHTHLVQQANPRGSAGPCCTPTKMSPINMLYFNDKQQIIYGKIPGMVVDRCGCS
modifications: Growth/differentiation factor 11
[3]
  degeneration of articular cartilage: attenuate the degeneration of articular cartilage
TGFbeta signaling
  TGFbeta signaling: increase TGFbeta signaling
